Reference: the supplement of paper PMC11061612

Assays:
Experiment in all cases: Bliss excess, mean over the matrix (fraction); higher = more synergy
AM-38 (Glioblastoma) = tested on: AM-38 (Glioblastoma)
In short: (§1)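 After 24 hours at 37°C and 5% CO2 in 1536-well plates, cells in DMEM/F12 or RPMI plus 10% FBS received two-drug dose matrices for 72 hours. Viability came from CellTiter-Glo 2.0 luminescence and was scaled as inhibition, anchored at 0 by vehicle wells and at 1 by blank wells. Combination Emax is taken as the second-highest inhibition in the matrix, and Bliss excess as the observed combination effect less EA + EB − EA·EB, with EA and EB the single-agent effects.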

[1] = tested on: BxPC-3 (Pancreatic Carcinoma)
In short: as §1

[2] = tested on: SNU-423 (Hepatocellular Carcinoma)
In short: as §1

[3] = tested on: Raji (Burkitt's Lymphoma)
In short: as §1

[4] = tested on: SNU-C2B (Colorectal Carcinoma)
In short: as §1

[5] = tested on: TUR (Acute Myeloid Leukemia)
In short: as §1

[6] = tested on: P32-ISH (Burkitt's Lymphoma)
In short: as §1

[7] = tested on: NCI-H596 (Other Solid Carcinomas)
In short: as §1

[8] = tested on: SCC-4 (Oral Cavity Carcinoma)
In short: as §1

[9] = tested on: DBTRG-05MG (Glioblastoma)
In short: as §1

[10] = tested on: NCI-H3118 (Head and Neck Carcinoma)
In short: as §1

[11] = tested on: NCI-H1341 (Small Cell Lung Carcinoma)
In short: as §1

[12] = tested on: PL4 (Pancreatic Carcinoma)
In short: as §1

[13] = tested on: PA-TU-8988T (Pancreatic Carcinoma)
In short: as §1

[14] = tested on: CL-11 (Colorectal Carcinoma)
In short: as §1

[15] = tested on: CPC-N (Small Cell Lung Carcinoma)
In short: as §1

[16] = tested on: IA-LM (Non-Small Cell Lung Carcinoma)
In short: as §1

WM35 (Melanoma) = tested on: WM35 (Melanoma)
In short: as §1

SK-N-SH (Neuroblastoma) = tested on: SK-N-SH (Neuroblastoma)
In short: as §1

[17] = tested on: MONO-MAC-6 (Acute Myeloid Leukemia)
In short: as §1

SMILES	Bliss excess (AM-38 (Glioblastoma))	Bliss excess [1]	Bliss excess [2]	Bliss excess [3]	Bliss excess [4]	Bliss excess [5]	Bliss excess [6]	Bliss excess [7]	Bliss excess [8]	Bliss excess [9]	Bliss excess [10]	Bliss excess [11]	Bliss excess [12]	Bliss excess [13]	Bliss excess [14]	Bliss excess [15]	Bliss excess [16]	Bliss excess (WM35 (Melanoma))	Bliss excess (SK-N-SH (Neuroblastoma))	Bliss excess [17]
Cc1cc2ncnn2cc1Nc1ncc2c(n1)n(C1CCOCC1)c(=O)n2C [AZD7648] + CN(C)CCCOc1ccc(-c2ccc3ncc4c(c3c2)n(C2CCOCC2)c(=O)n4C)cn1 [AZD0156] (first compound max 10 µM, 7x7, partner max 1 µM)	-0.0139	-0.0034	-0.0133	0.0416	-0.0251	0.0283	0.0153	-0.002	-0.0164	-0.0363	0.0143	0.0157	-0.0153	0.0174	0.0399	0.0326	-0.0133	-0.0123	-0.0046	-0.0869
Cc1cc2ncnn2cc1Nc1ncc2c(n1)n(C1CCOCC1)c(=O)n2C [AZD7648] + C[C@@H]1COCCN1C2=NC(=NC(=C2)C3(CC3)[S@](=N)(=O)C)C4=C5C=CNC5=NC=C4 [AZD6738] (first compound max 10 µM, 7x7, partner max 10 µM)	-0.0015	0.0044	0.0426	0.0011	-0.0036	0.0024	-0.0029	-0.0318	-0.025	-0.0174	0.0555	-0.0087	-0.0396	0.003	-0.028	-0.0013	0.0867	0.0113	0.0026	-0.0147
Cc1cc2ncnn2cc1Nc1ncc2c(n1)n(C1CCOCC1)c(=O)n2C [AZD7648] + O=C(c1cc(Cc2n[nH]c(=O)c3ccccc23)ccc1F)N1CCN(C(=O)C2CC2)CC1 [Olaparib] (first compound max 10 µM, 7x7, partner max 10 µM)	0.0174	-0.0712	-0.0451	0.0011	-0.0432	0.0054	-0.0413	-0.0384	-0.0422	-0.0477	-0.0223	0.013	-0.0364	-0.0047	-0.0464	0.0169	-0.042	-0.0239	0.0056	-0.0146
NC1(C(=O)N[C@@H](CCO)c2ccc(Cl)cc2)CCN(c2ncnc3[nH]ccc23)CC1 [Capivasertib] + CC(=O)c1c(C)c2cnc(Nc3ccc(N4CCNCC4)cn3)nc2n(C2CCCC2)c1=O [Palbociclib] (first compound max 10 µM, 7x7, partner max 10 µM)	0.0392	-0.0396	-0.0019	0.0521	-0.16	0.0128	0.0066	-0.0856	-0.007	-0.0072	0.0463	-0.0345	-0.0323	-0.0168	-0.0222	-0.0448	-0.0789	0.01	0.0041	0.0034
NC1(C(=O)N[C@@H](CCO)c2ccc(Cl)cc2)CCN(c2ncnc3[nH]ccc23)CC1 [Capivasertib] + CC(C)n1c(=O)n(C)c2cnc3cc(F)c(-c4ccc(OCCCN5CCCCC5)nc4)cc3c21 [AZD1390] (first compound max 10 µM, 7x7, partner max 0.3 µM)	-0.064	-0.0361	-0.0583	-0.0461	-0.0775	-0.0704	0.0131	-0.143	-0.045	-0.0418	-0.0572	-0.0818	-0.0225	-0.0434	-0.0287	-0.0435	-0.0371	-0.0773	-0.0626	-0.0262
NC1(C(=O)N[C@@H](CCO)c2ccc(Cl)cc2)CCN(c2ncnc3[nH]ccc23)CC1 [Capivasertib] + CCN(CCO)CCCOc1ccc2c(Nc3cc(CC(=O)Nc4cccc(F)c4)[nH]n3)ncnc2c1 [AZD2811] (first compound max 10 µM, 7x7, partner max 1 µM)	0.0122	-0.0545	-0.0676	0.0021	-0.0032	0.0286	-0.021	0.017	-0.0671	0.03	-0.0242	-0.0036	0.0317	0.103	-0.0034	-0.0523	-0.0113	-0.0471	-0.0455	0.0633
NC1(C(=O)N[C@@H](CCO)c2ccc(Cl)cc2)CCN(c2ncnc3[nH]ccc23)CC1 [Capivasertib] + COc1nnc2ccc(N3CCC(c4ccc(OCCN5CCN(C)C(=O)[C@H]5C)cc4)CC3)nn12 [AZD5153] (first compound max 10 µM, 7x7, partner max 1 µM)	0.0039	-0.0336	0.0056	0.0469	-0.0442	0.0661	0.119	-0.0136	0.0043	-0.0239	-0.0144	0.0383	-0.0138	-0.0603	-0.0206	-0.0348	-0.141	-0.0195	0.0362	-0.003
NC1(C(=O)N[C@@H](CCO)c2ccc(Cl)cc2)CCN(c2ncnc3[nH]ccc23)CC1 [Capivasertib] + C[C@@H]1COCCN1C2=NC(=NC(=C2)C3(CC3)[S@](=N)(=O)C)C4=C5C=CNC5=NC=C4 [AZD6738] (first compound max 10 µM, 7x7, partner max 10 µM)	-0.0121	-0.0076	-0.0139	0.0187	0.0158	-0.0398	0.0277	-0.0105	-0.109	0.0064	-0.0807	-0.0251	-0.0328	-0.0372	-0.0376	-0.0117	0.008	-0.02	-0.0576	-0.0397
NC1(C(=O)N[C@@H](CCO)c2ccc(Cl)cc2)CCN(c2ncnc3[nH]ccc23)CC1 [Capivasertib] + Cn1cnc2c(F)c(Nc3ccc(Br)cc3Cl)c(C(=O)NOCCO)cc21 [Selumetinib] (first compound max 10 µM, 7x7, partner max 10 µM)	0.0564	-0.0091	0.0248	0.0036	-0.022	0.0879	0.0288	0.0182	0.042	-0.0148	0.091	0.0605	-0.0314	0.128	-0.0202	-0.0381	-0.113	0.0104	-0.0223	0.0394
Cc1nc(Nc2ncc(C(=O)Nc3c(C)cccc3Cl)s2)cc(N2CCN(CCO)CC2)n1 [Dasatinib] + CC(=O)Nc1cccc(-n2c(=O)n(C3CC3)c(=O)c3c(Nc4ccc(I)cc4F)n(C)c(=O)c(C)c32)c1 [Trametinib] (first compound max 2 µM, 7x7, partner max 1 µM)	0.0091	0.0009	-0.047	-0.0232	-0.0275	-0.0919	0.0545	-0.0018	-0.0042	0.0499	-0.0604	0.105	-0.0056	0.136	0.0766	-0.0405	0.117	-0.0182	-0.0507	-0.0052
COc1cccc2c1C(=O)c1c(O)c3c(c(O)c1C2=O)C[C@@](O)(C(=O)CO)C[C@@H]3O[C@H]1C[C@H](N)[C@H](O)[C@H](C)O1 [Doxorubicin] + Cc1cc2ncnn2cc1Nc1ncc2c(n1)n(C1CCOCC1)c(=O)n2C [AZD7648] (first compound max 1 µM, 7x7, partner max 10 µM)	0.114	0.0216	0.0414	0.0979	0.0518	0.119	0.14	-0.006	0.0176	0.0225	0.0731	0.0628	0.0391	0.0582	0.0863	0.105	0.0044	0.0285	0.0605	0.0935
COc1cc2ncnc(Nc3ccc(F)c(Cl)c3)c2cc1OCCCN1CCOCC1 [Gefitinib] + CC(C)n1c(=O)n(C)c2cnc3cc(F)c(-c4ccc(OCCCN5CCCCC5)nc4)cc3c21 [AZD1390] (first compound max 10 µM, 7x7, partner max 0.3 µM)	-0.0811	-0.0692	-0.0902	-0.0343	-0.06	-0.0185	-0.0116	-0.0474	-0.059	-0.0482	-0.0011	-0.0399	-0.055	-0.0342	-0.0474	-0.0369	-0.111	-0.0641	-0.0718	-0.0545
CS(=O)(=O)CCNCc1ccc(-c2ccc3ncnc(Nc4ccc(OCc5cccc(F)c5)c(Cl)c4)c3c2)o1 [Lapatinib] + C[C@@H](Oc1cc(-c2cnn(C3CCNCC3)c2)cnc1N)c1c(Cl)ccc(F)c1Cl [Crizotinib] (first compound max 10 µM, 7x7, partner max 10 µM)	-0.0295	-0.0259	-0.074	0.0203	-0.0515	-0.0168	0.0037	-0.0065	0.0003	-0.0334	0.0337	0.0876	0.0434	-0.0244	-0.0477	-0.0741	-0.0133	-0.0446	-0.0618	-0.0438
CC(=O)c1c(C)c2cnc(Nc3ccc(N4CCNCC4)cn3)nc2n(C2CCCC2)c1=O [Palbociclib] + CC1(C)CCC(CN2CCN(c3ccc(C(=O)NS(=O)(=O)c4ccc(NCC5CCOCC5)c([N+](=O)[O-])c4)c(Oc4cnc5[nH]ccc5c4)c3)CC2)=C(c2ccc(Cl)cc2)C1 [Venetoclax] (first compound max 10 µM, 7x7, partner max 1 µM)	-0.0058	-0.0429	-0.034	0.0634	-0.036	0.0153	-0.0132	-0.0501	-0.0637	-0.0477	-0.0142	0.0245	-0.0521	-0.0333	-0.0286	-0.0394	-0.0647	-0.0448	-0.0185	0.0129
CC(=O)c1c(C)c2cnc(Nc3ccc(N4CCNCC4)cn3)nc2n(C2CCCC2)c1=O [Palbociclib] + Cc1c2c(nn1C)CSCc1cc(n(C)n1)CSc1cc(c3ccccc3c1)OCCCc1c(C(=O)O)n(C)c3c-2c(Cl)ccc13 [AZD5991] (first compound max 10 µM, 7x7, partner max 1 µM)	-0.0448	-0.0528	-0.0349	-0.0109	-0.0477	-0.0441	0.0299	-0.13	-0.0394	-0.0561	0.0084	-0.031	-0.0458	-0.0361	0.0079	0.0035	-0.161	-0.0198	-0.0257	-0.0016
